Measured values from patent US20230080054A1 (ILDONG PHARMACEUTICAL CO., LTD., priority 2021, published 2023).

What follows are compounds tested on platelet-rich plasma (PRP) (assay: Recalcification time of rat platelet-rich plasma). Settings: 30 μM, vs 2% DMSO control.
Procedure: Example 5: Recalcification Time
1. Materials and Instruments
Isoflurane (Hana Pharm, cat. #9008), Isotonic Sodium Chloride Injection (Daihan Pharm, cat. #331), Citrate-dextrose solution (Sigma-Aldrich, cat. #C3821), Calcium chloride solution (Sigma-Aldrich, cat. #21115), 22G Syringe 10 mL (Koreavaccine), Dimethyl sulfoxide (Sigma-Aldrich, cat. #D5879), Apixaban (AK scientific, cat. #X1060), 96 Well Cell Culture Plates (SPL Life Sciences, cat. #30096), Synergy H4 Hybrid Microplate Reader (BioTek), Combi R515 Multi-purpose Centrifuge (Hanil Scientific), BS-06 Shaking & Heating Baths (JEIO TECH), and PST-60HL-4 Plate Shaker-Thermostat (Bio-San)
Seven-week-old male SD Rat (ORIENT BIO.) were maintained under controlled conditions of temperature (22±2° C.) and 12-h light/12-h dark cycle. Rats were housed in the pathogen-free facility of the Laboratory Animal Research Center in Ildong Pharmaceutical Co. Ltd. All procedures on animals were conducted in accordance with the relevant national regulatory guidelines and individual experiments approved by the Ildong Pharmaceutical Co. Ltd., Institutional Animal Care and Use Committee (IACUC) (approval No.: A2106-3, 2108-4).
The ability of test compounds to interfere with plasma coagulation, in the presence of platelets, was analyzing by measuring the recalcification time of rat plasma. The blood of animals was collected into 15 mL tubes containing Citrate-dextrose solution (9:1 v/v) before performing the assays. For recalcification time, platelet-rich plasma (PRP) samples were obtained by centrifugation at 360×g for 10 minutes. And the PRP were preincubated for 5 minutes (37° C.). In a 96 well microplate, test compounds (2 μL) were treated in 98 μL of platelet rich plasma. After mixing with a pipette, it was incubated at 37° C. for 15 minutes. The reaction was started by addition of 200 μL of pre-warmed CaCl2) (16 mM). Immediately, put the microplate in a microplate reader and the signals were measured by the following steps.
(1) 405 nm wavelength absorbance signals were recorded in every 10 seconds at 37° C.
(2) Basal absorbance signals were recorded for 0 second.
The signal variance of each of the test compounds was obtained by the following step.
(1) Background signals (t=O) were subtracted from recording values, and the resulting values were converted to change values. The values at 0 second were set to be zero.
The retardation time of test compound were calculated by the following formula:
Retardation time (sec)=[log EC50 (test sample)−log EC50 (DMSO control)]
As described above, a DMSO control group is a group to which 2% DMSO was treated.
The assay result is shown in Table 5, where compounds (30 μM) having less than 20 seconds of retardation time are marked by ‘C’; the compounds (30 μM) having retardation time of 20 seconds or more to less than 50 seconds are marked by ‘B’; and the compounds (30 μM) having retardation time of 50 seconds or more are marked by ‘A’.

| Compound | Inhibition Level (retardation time, recalcification time) |
| --- | --- |
| O=C(Nc1cccc(F)c1)c1cccc(Nc2ccc(-c3cccc(F)c3)cn2)c1 [Compound 122, N-(3-fluorophenyl)-3-{[5-(3-fluorophenyl)pyridin-2-yl]amino}benzamide] | B (the compounds (30 μM) having retardation time of 20 seconds or more to less than 50 seconds) |
| O=C(NCCC1CCCCC1)c1cccc(Nc2ncc(-c3cccc(F)c3)cn2)c1 [Compound 80, N-(2-cyclohexylethyl)-3-{[5-(3-fluorophenyl)pyrimidin-2-yl]amino}benzamide] | C (compounds (30 μM) having less than 20 seconds of retardation time) |
| O=C(N[C@@H]1C[C@H]1c1ccccc1)c1cccc(Nc2ccc(-c3ccccc3)nn2)c1 [Compound 68, N-[(1R,2S)-2-phenylcyclopropyl]-3-[(6-phenylpyridazin-3-yl)amino]benzamide] | A (the compounds (30 μM) having retardation time of 50 seconds or more) |
| O=C(NCCc1cccc(C(F)(F)F)c1)c1cccc(Nc2ncc(-c3cccc(F)c3)cn2)c1 [Compound 79, 3-{[5-(3-fluorophenyl)pyrimidin-2-yl]amino}-N-{2-[3-(trifluoromethyl)phenyl]ethyl}benzamide] | C (compounds (30 μM) having less than 20 seconds of retardation time) |
| O=C(Nc1ccc(Cl)c(Cl)c1)c1cccc(Nc2ncc(-c3cccc(F)c3)cn2)c1 [Compound 118, N-(3,4-dichlorophenyl)-3-{[5-(3-fluorophenyl)pyrimidin-2-yl]amino}benzamide] | C (compounds (30 μM) having less than 20 seconds of retardation time) |
| O=C(N[C@@H]1C[C@H]1c1ccccc1)c1cccc(Nc2ncc(-c3cccc(F)c3)cn2)c1 [Compound 119, 3-{[5-(3-fluorophenyl)pyrimidin-2-yl]amino}-N-[(1R,2S)-2-phenylcyclopropyl]benzamide] | C (compounds (30 μM) having less than 20 seconds of retardation time) |
| O=C(N[C@@H]1C[C@H]1c1ccccc1)c1cccc(Nc2ccc(-c3cccc(F)c3)cn2)c1 [Compound 123, 3-{[5-(3-fluorophenyl)pyridin-2-yl]amino}-N-[(1R,2S)-2-phenylcyclopropyl]benzamide] | B (the compounds (30 μM) having retardation time of 20 seconds or more to less than 50 seconds) |
